Literature values, collected in patent US11827744B2, “Bottlebrush copolymers and uses thereof” (Massachusetts Institute of Technology, priority 2016, dated 2023).

Columns and labels:
[1] = in vivo

CCc1c2c(nc3ccc(O)cc13)-c1cc3c(c(=O)n1C2)COC(=O)[C@]3(O)CC [SN-38]
water solubility: low water solubility | circulation life-times [1]: short circulation life-times
